Laboratory results from publication PMC11302339, “A series of pyrimidine-based antifungals with anti-mold activity disrupt ER function in Aspergillus fumigatus” (Microbiology Spectrum, 2024).
Converted amounts (≈) assume the structure as drawn.

Tests used:
[1] = test system: A. fumigatus UPR-responsive genes; test: A. fumigatus UPR gene expression (qRT-PCR); assay type: cell-based, Aspergillus fumigatus
Method: We cultured 5 × 10^6 CEA10 conidia/mL in liquid GMM for 18 hours at 37°C with shaking at 250 rpm. Cultures were treated with either DMSO or 16 µg/mL 1 for 2 hours at 37°C, 250 rpm. Then 1 mM DTT or water was added, and cultures were incubated for an additional hour. Mycelia were collected with vacuum filtration and immediately frozen with liquid nitrogen. Tissue was lyophilized then ground with glass beads with a bead beater. RNA was extracted in 1 mL of TRIazole solution (Life Technologies, Cat # 15596026), then RNA was purified with two rounds of chloroform extraction. Five micrograms of RNA was treated with TURBO DNA-free kit (Invitrogen, Cat # AM1907) according to the manufacturer’s protocol. Five hundred nanograms of DNAse-treated RNA was used for cDNA synthesis with iScript cDNA synthesis kit (BioRad, Cat # 1708891), then cDNA was diluted 1:5 with ddH2O. Quantitative real time PCR analysis was performed in 20 µL reactions using 2 µL of dilute cDNA per reaction with iQ SYBR Green Supermix (BioRad). Samples were run on a BioRad CFX Connect using a three-step amplification with 54°C annealing temperature and melt curve analysis. Gene expression is normalized to tubA and tef1 expression. Gene expression was performed in biological triplicate. Primers to detect HacA splicing and targets were designed as previously described ([51]).

A. fumigatus = test: MIC testing in the presence of 10% serum; assay type: cell-based, Aspergillus fumigatus
Method: (§1) MICs were determined using Clinical and Laboratory Standards Institute guidelines ([48], [49]). All yeasts were cultured overnight in 3 mL YPD at 30°C, then washed twice in sterile phosphate-buffered saline (PBS). Twofold serial dilutions of each drug were prepared in RMPI + MOPS, then 1 × 10^3 cells were added per well. For mold species, wells were inoculated with 1.25 × 10^3 conidia per well. Plates were incubated at 37°C for 24 (Candida spp. and S. cerevisiae), 48 (Aspergillus spp., M. circinelloides, S. apiospermum, and L. prolificans), or 72 (C. neoformans and F. oxysporum) hours. S. cerevisiae BY4743 MICs were tested in YPD due to nutritional requirements of this strain. Each assay was performed in technical duplicate in at least two independent experiments performed on different days.

[2] = test system: C. neoformans MAPK mutants; test: C. neoformans competition assay with MAPK mutants; assay type: cell-based, Cryptococcus neoformans; settings: 1.5 µg/mL 1, 24 hours, 37°C
Method: H99-mNeon and MAPK mutants (obtained from the C. neoformans kinase deletion collection, FGSC) were grown overnight in YPD at 30°C then washed in PBS. Each strain was counted and diluted into 96-well plates such that each well contained 1 × 10^3 CFU/strain with 1.5 µg/mL 1 or DMSO in 100 µL total volume. Plates were incubated at 37°C for 24 hours before analyzing on an Attune NxT Flow Cytometer with CytKick autosampler and Attune Cytometric software. Gating strategy was optimized for single cells as previously described ([50]). mNeonGreen positive and negative populations were identified by histogram plot with 100,000 cells counted per sample. Data represent mean and SD of biological triplicate and are representative of two independent experiments.

A. fumigatus CEA10 = test: ER stress interactions on GMM plates; assay type: cell-based, Aspergillus fumigatus; settings: 1 µg/mL 1 on GMM
Method: For Aspergillus fumigatus, 5 µL of 1 × 10^4 CEA10 conidia was spotted at the center of GMM plates containing DMSO or 1 µg/mL 1 in combination with DTT, brefeldin A, or tunicamycin. Plates were incubated at 37°C for 72 hours. Representative images of two independent experiments with three biological replicates each were obtained. For Ire1 strains, the cells were prepared as described above but were incubated at 30°C.

S. cerevisiae = test: MIC testing (broth dilution, YPD); assay type: cell-based; settings: Saccharomyces cerevisiae, 24 h
Method: as §1

[3] = Protein binding analysis, brain; assay type: in vitro ADME
[4] = combination: 16 µg/mL 1 for 2 hours, then 1 mM DTT for 1 hour
[5] = single agent (16 µg/mL 1, or 1 mM DTT for 1 hour), normalized to DMSO

In the case of `OC1CC(c2cc(N3CCC(CCc4ccccc4)CC3)ncn2)C1` (centres unmarked) [compound 1], the “increase in HacA^A splicing” value [1, 4] is reported as 17 fold, the “increase in HacA^B” value [1, 4] is reported as 3 fold and the “increase in BipA expression” value [1, 5] is reported as 2 fold. The “increase in PdiA expression” value [1, 5] was “no change”, the “increase of spliced HacA (HacA^A)” value [1, 5] was “about threefold” and the “increase in MIC in the presence of 10% serum” value (A. fumigatus; A. fumigatus) was 2 fold. For the same molecule, the MIC (A. fumigatus; Aspergillus fumigatus, read-out: MIC w/serum) was 32 µg/mL, the “reduction of mutant in competition with H99-GFP” value (“reduction of mutant” below) ([2]; ∆hog1) was 20% and the “reduction of mutant” value ([2]; ∆pbs2) was 60%. The “reduction of mutant” value ([2]; ∆ssk2) was 63%, the “interaction with DTT” value (A. fumigatus CEA10; 37°C, 72 hours) was “synergistic” and the “interaction with brefeldin A” value (A. fumigatus CEA10; 37°C, 72 hours) was “modest antagonism”. The interaction with tunicamycin (A. fumigatus CEA10; 10 µg/mL tunicamycin) was “slight antagonism”, the interaction with tunicamycin (A. fumigatus CEA10; 50 µg/mL tunicamycin) was “no interaction” and the MIC (S. cerevisiae) was 8 µg/mL (≈ 23.7 µM). For the same molecule, the fraction unbound at 6 h, 5 µM ([3]; read-out: Corrected % Protein binding (converted)) was 0.0112 and the fraction unbound ([3]; uncorrected) was 0.1.
